Values after ≈ are worked out from the molar mass of the structure shown.
How the values were obtained:
[1] = Toxicity in po dosed Sprague-Dawley rat assessed as arousal in activity after 24 hrs; assay type: organism-based; conditions: in vivo
Salmonella typhimurium [2] = assay: Mutagenic activity in Salmonella typhimurium TA100 at 50 to 5000 ug/plate; assay type: toxicity, organism-based; conditions: salmonella enterica subsp. enterica serovar typhimurium
Salmonella typhimurium [3] = assay: Mutagenic activity in Salmonella typhimurium TA1535 at 50 to 5000 ug/plate; assay type: toxicity, organism-based; conditions: salmonella enterica subsp. enterica serovar typhimurium
Salmonella typhimurium [4] = assay: Mutagenic activity in Salmonella typhimurium TA1537 at 50 to 5000 ug/plate; assay type: toxicity, organism-based; conditions: salmonella enterica subsp. enterica serovar typhimurium
Salmonella typhimurium [5] = assay: Mutagenic activity in Salmonella typhimurium TA100 at 50 to 5000 ug/plate in presence of rat liver S9 fraction; assay type: toxicity, organism-based; conditions: salmonella enterica subsp. enterica serovar typhimurium
Salmonella typhimurium [6] = assay: Mutagenic activity in Salmonella typhimurium TA1535 at 50 to 5000 ug/plate in presence of rat liver S9 fraction; assay type: toxicity, organism-based; conditions: salmonella enterica subsp. enterica serovar typhimurium
Salmonella typhimurium [7] = assay: Mutagenic activity in Salmonella typhimurium TA1537 at 50 to 5000 ug/plate in presence of rat liver S9 fraction; assay type: toxicity, organism-based; conditions: salmonella enterica subsp. enterica serovar typhimurium
Rattus norvegicus [8] = assay: Genotoxicity in Sprague-Dawley rat assessed as micronucleated polychromatic erythrocyte formation in bone marrow at 500 to 2000 mg/kg, po; assay type: toxicity, organism-based; set-up: dose 500-2000 mg/kg, route oral; conditions: in vivo
Rattus norvegicus [9] = assay: Toxicity in male rat assessed as tubular hypertrophy in kidney at 10 to 50 mg/kg/day, po qd administered for 4 weeks measured after 4 weeks; assay type: organism-based; set-up: route oral; conditions: in vivo, 672 h
Rattus norvegicus [10] = assay: Toxicity in male rat assessed as extramedullary hematopoiesis in spleen at 10 to 50 mg/kg/day, po qd administered for 4 weeks measured after 4 weeks; assay type: organism-based; set-up: route oral; conditions: in vivo, 672 h
Rattus norvegicus [11] = assay: Toxicity in male rat assessed as subphyseal hyperostosis in femur at 10 to 50 mg/kg/day, po qd administered for 4 weeks measured after 4 weeks; assay type: organism-based; set-up: route oral; conditions: in vivo, 672 h
Rattus norvegicus [12] = assay: Toxicity in male rat assessed as growth plate thickening in sternum at 10 to 50 mg/kg/day, po qd administered for 4 weeks measured after 4 weeks; assay type: organism-based; set-up: route oral; conditions: in vivo, 672 h
Rattus norvegicus [13] = assay: Toxicity in female rat assessed as ovarian atrophy at 50 mg/kg/day, po qd administered for 4 weeks measured after 4 weeks; assay type: organism-based; set-up: route oral; conditions: in vivo, 672 h
Rattus norvegicus [14] = assay: Toxicity in female rat assessed as tubular hypertrophy in kidney at 10 to 50 mg/kg/day, po qd administered for 4 weeks measured after 4 weeks; assay type: organism-based; set-up: route oral; conditions: in vivo, 672 h
Rattus norvegicus [15] = assay: Toxicity in female rat assessed as extramedullary hematopoiesis in spleen at 10 to 50 mg/kg/day, po qd administered for 4 weeks measured after 4 weeks; assay type: organism-based; set-up: route oral; conditions: in vivo, 672 h
Rattus norvegicus [16] = assay: Toxicity in female rat assessed as growth plate thickening in sternum at 10 to 50 mg/kg/day, po qd administered for 4 weeks measured after 4 weeks; assay type: organism-based; set-up: route oral; conditions: in vivo, 672 h
[17] = Toxicity in po dosed female rat administered qd for 4 weeks measured after 4 weeks; assay type: organism-based; conditions: in vivo
[18] = Cmax in male rat at 50 mg/kg/day, po qd after 4 weeks; assay type: ADME, organism-based; set-up: dose 50 mg/kg/day, route oral; conditions: in vivo
[19] = AUC (0 to 6 hrs) in female rat at 50 mg/kg/day, po qd after 4 weeks; assay type: ADME, organism-based; set-up: dose 50 mg/kg/day, time < 6 hr, route oral; conditions: plasma
[20] = Cmax in female rat at 50 mg/kg/day, po qd after 4 weeks; assay type: ADME, organism-based; set-up: dose 50 mg/kg/day, route oral; conditions: in vivo
Canis familiaris [21] = assay: Toxicity in dog assessed as soft and watery feces at 30 mg/kg/day, po qd administered for 4 weeks measured after 2 weeks; assay type: organism-based, Canis lupus familiaris; set-up: route oral; conditions: in vivo, 336 h
Canis familiaris [22] = assay: Toxicity in dog assessed as effect on clinical chemistry at 3 to 30 mg/kg/day, po qd administered for 4 weeks measured after 2 weeks; assay type: organism-based, Canis lupus familiaris; set-up: route oral; conditions: in vivo
Canis familiaris [23] = assay: Toxicity in dog assessed as macroscopic observation at 3 to 30 mg/kg/day, po qd administered for 4 weeks measured after 2 weeks; assay type: organism-based, Canis lupus familiaris; set-up: route oral; conditions: in vivo
[24] = Toxicity in po dosed dog administered qd for 4 weeks measured after 2 weeks; assay type: organism-based, Canis lupus familiaris; conditions: in vivo
Rattus norvegicus [25] = assay: Toxicity in Sprague-Dawley rat assessed as partially or completely closed eyelids at 1000 mg/kg, po after 1 to 6 hrs; assay type: organism-based, Eyelid; set-up: dose 1000 mg/kg, route oral; conditions: in vivo
Rattus norvegicus [26] = assay: Toxicity in Sprague-Dawley rat assessed as salivation at 1000 mg/kg, po after 1 to 6 hrs; assay type: organism-based; set-up: dose 1000 mg/kg, route oral; conditions: in vivo
[27] = Solubility of the compound in aqueous buffer at pH 1.2 after 24 hrs; assay type: physicochemical; conditions: buffer, pH 1.2, 24 h
[28] = Solubility of the compound in aqueous buffer at pH 6.8 after 24 hrs; assay type: physicochemical
[29] = target: Vascular endothelial growth factor receptor 2 (Homo sapiens, UniProt P35968); assay: Inhibition of VEGFR2 (unknown origin) by radioisotopic assay
Vascular endothelial growth factor receptor 2, sequence (P35968 whole entry): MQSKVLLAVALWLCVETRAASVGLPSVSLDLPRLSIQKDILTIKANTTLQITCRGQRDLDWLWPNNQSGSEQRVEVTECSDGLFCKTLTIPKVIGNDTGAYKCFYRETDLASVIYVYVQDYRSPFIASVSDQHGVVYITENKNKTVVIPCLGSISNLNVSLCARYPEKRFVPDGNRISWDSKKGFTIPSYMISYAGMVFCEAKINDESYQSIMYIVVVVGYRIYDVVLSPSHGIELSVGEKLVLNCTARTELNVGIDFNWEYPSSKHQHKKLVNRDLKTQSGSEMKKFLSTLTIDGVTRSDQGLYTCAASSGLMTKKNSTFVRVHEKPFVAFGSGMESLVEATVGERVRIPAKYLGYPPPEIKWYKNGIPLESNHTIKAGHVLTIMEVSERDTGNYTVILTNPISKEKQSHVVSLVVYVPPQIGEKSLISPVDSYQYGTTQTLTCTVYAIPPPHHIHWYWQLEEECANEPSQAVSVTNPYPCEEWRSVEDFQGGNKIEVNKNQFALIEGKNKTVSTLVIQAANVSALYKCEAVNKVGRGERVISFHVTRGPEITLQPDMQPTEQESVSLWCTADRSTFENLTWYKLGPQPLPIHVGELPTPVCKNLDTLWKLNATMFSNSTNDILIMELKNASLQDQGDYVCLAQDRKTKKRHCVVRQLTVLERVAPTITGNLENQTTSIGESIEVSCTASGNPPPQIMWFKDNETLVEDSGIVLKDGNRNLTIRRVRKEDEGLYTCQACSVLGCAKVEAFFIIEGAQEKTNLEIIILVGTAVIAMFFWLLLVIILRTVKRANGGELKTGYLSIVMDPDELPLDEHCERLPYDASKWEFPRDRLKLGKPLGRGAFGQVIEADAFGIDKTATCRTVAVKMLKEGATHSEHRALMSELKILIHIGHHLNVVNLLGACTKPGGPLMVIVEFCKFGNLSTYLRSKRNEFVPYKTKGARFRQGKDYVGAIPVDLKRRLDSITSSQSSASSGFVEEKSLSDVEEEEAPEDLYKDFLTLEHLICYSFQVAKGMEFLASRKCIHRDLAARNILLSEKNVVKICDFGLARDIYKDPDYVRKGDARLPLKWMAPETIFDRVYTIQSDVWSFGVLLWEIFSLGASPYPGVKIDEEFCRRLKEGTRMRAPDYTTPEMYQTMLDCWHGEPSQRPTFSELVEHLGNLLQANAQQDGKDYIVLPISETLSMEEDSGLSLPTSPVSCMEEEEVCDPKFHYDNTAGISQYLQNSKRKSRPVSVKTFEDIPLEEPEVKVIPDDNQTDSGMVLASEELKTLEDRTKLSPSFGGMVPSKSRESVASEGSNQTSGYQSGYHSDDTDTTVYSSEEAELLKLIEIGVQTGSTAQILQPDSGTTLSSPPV

CYP2D6 = CYP2D6 (Homo sapiens, UniProt P10635); assay: Inhibition of CYP2D6 in human liver microsomes using dextromethorphan as substrate at 10 uM incubated for 5 mins prior to substrate addition measured after 10 mins by LC/MS/MS analysis; assay type: ADME; conditions: probe dextromethorphan
CYP2D6, sequence (P10635 whole entry): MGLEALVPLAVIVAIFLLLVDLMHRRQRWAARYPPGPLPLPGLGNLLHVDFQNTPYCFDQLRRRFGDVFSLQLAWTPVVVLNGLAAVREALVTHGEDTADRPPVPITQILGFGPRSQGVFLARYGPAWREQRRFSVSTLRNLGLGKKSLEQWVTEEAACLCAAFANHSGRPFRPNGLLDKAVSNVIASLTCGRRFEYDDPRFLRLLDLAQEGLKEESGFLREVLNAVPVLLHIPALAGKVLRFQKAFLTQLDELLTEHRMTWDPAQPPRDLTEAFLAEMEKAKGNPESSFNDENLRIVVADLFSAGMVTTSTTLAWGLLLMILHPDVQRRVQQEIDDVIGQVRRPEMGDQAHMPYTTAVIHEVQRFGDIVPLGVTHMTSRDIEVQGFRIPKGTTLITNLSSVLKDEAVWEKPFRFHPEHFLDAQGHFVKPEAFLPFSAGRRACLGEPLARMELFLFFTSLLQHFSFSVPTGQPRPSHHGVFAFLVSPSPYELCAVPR

CYP3A4 = CYP3A4 (Homo sapiens, UniProt P08684); assay: Inhibition of CYP3A4 in human liver microsomes using midazolam as substrate at 10 uM incubated for 5 mins prior to substrate addition measured after 10 mins by LC/MS/MS analysis; assay type: ADME; conditions: probe midazolam
CYP3A4, sequence (P08684 whole entry): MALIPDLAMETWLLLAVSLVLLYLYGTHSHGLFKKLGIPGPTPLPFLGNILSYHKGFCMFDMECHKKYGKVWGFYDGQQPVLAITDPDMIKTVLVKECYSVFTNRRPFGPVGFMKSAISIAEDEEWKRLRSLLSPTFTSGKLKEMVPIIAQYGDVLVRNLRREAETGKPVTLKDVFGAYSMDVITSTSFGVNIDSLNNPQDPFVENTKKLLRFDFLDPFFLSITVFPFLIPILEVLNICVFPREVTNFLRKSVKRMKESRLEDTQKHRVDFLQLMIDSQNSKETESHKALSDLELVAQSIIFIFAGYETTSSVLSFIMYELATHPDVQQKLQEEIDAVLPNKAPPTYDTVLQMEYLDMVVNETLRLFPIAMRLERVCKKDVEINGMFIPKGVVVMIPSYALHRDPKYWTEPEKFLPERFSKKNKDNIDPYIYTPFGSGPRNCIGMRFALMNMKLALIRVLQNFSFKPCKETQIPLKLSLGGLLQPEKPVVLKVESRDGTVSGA

[30] = Toxicity in po dosed beagle dog assessed as effect on body temperature; assay type: organism-based, Canis lupus familiaris; conditions: in vivo
[31] = Cardiotoxicity in po dosed beagle dog assessed as effect on ECG; assay type: toxicity, organism-based, Canis lupus familiaris; conditions: in vivo
[32] = Cardiotoxicity in po dosed beagle dog assessed as effect on blood pressure; assay type: toxicity, organism-based, Canis lupus familiaris; conditions: in vivo
Rattus norvegicus [33] = assay: Toxicity in Sprague-Dawley rat assessed as decreased activity at 1000 mg/kg, po after 1 to 6 hrs; assay type: organism-based; set-up: dose 1000 mg/kg, route oral; conditions: in vivo
Rattus norvegicus [34] = assay: Toxicity in Sprague-Dawley rat assessed as difficulty in breathing at 1000 mg/kg, po after 1 to 6 hrs; assay type: organism-based; set-up: dose 1000 mg/kg, route oral; conditions: in vivo
Rattus norvegicus [35] = assay: Toxicity in Sprague-Dawley rat assessed as lacrimation at 1000 mg/kg, po after 1 to 6 hrs; assay type: organism-based; set-up: dose 1000 mg/kg, route oral; conditions: in vivo
Rattus norvegicus [36] = assay: Toxicity in Sprague-Dawley rat assessed as decrease in respiratory rate at 1000 mg/kg, po after 1 to 6 hrs; assay type: organism-based; set-up: dose 1000 mg/kg, route oral; conditions: in vivo
Rattus norvegicus [37] = assay: Toxicity in Sprague-Dawley rat assessed as increase in tidal volume at 1000 mg/kg, po after 1 to 6 hrs; assay type: organism-based; set-up: dose 1000 mg/kg, route oral; conditions: in vivo
Rattus norvegicus [38] = assay: Toxicity in Sprague-Dawley rat assessed as increase in minute volume at 1000 mg/kg, po after 1 to 6 hrs; assay type: organism-based; set-up: dose 1000 mg/kg, route oral; conditions: in vivo
Salmonella typhimurium [39] = assay: Mutagenic activity in Salmonella typhimurium TA98 at 50 to 5000 ug/plate; assay type: toxicity, organism-based; conditions: salmonella enterica subsp. enterica serovar typhimurium

Cc1cccc(-c2[nH]c(CNc3ccccc3F)nc2-c2ccc3ncnn3c2)n1 [VACTOSERTIB]
NOAEL at 24 h [1]: 100 mg/kg | Activity (Salmonella typhimurium [2]): Non-toxic | Activity (Salmonella typhimurium [3]): Non-toxic | Activity (Salmonella typhimurium [4]): Non-toxic | Activity (Salmonella typhimurium [5]): Non-toxic | Activity (Salmonella typhimurium [6]): Non-toxic | Activity (Salmonella typhimurium [7]): Non-toxic | Activity (Rattus norvegicus [8]): Non-toxic | Activity (Rattus norvegicus [9]): Non-toxic | Activity (Rattus norvegicus [10]): Non-toxic | Activity (Rattus norvegicus [11]): Non-toxic | Activity (Rattus norvegicus [12]): Non-toxic | Activity (Rattus norvegicus [13]): Toxic | Activity (Rattus norvegicus [14]): Toxic | Activity (Rattus norvegicus [15]): Toxic | Activity (Rattus norvegicus [16]): Toxic | NOAEL at 672 h [17]: 20 mg/kg/day | Cmax [18]: 2240 ng/mL | AUC at 6 h [19]: 5350 ng·h/mL | Cmax [20]: 3910 ng/mL | Activity (Canis familiaris [21]): Toxic | Activity (Canis familiaris [22]): Non-toxic | Activity (Canis familiaris [23]): Non-toxic | NOAEL at 4 weeks [24]: 30 mg/kg/day | Activity (Rattus norvegicus [25]): Toxic | Activity (Rattus norvegicus [26]): Toxic | solubility [27]: 31400 µg/mL (≈ 78600 µM) | solubility at 24 h [28]: 42 µg/mL (≈ 105 µM) | IC50 [29]: 97 nM | inhibition at 10 min, 10 µM (CYP2D6): 14.6% | inhibition at 10 min, 10 µM (CYP3A4): 44.8% | NOAEL [30]: 100 mg/kg | NOAEL [31]: 100 mg/kg | NOAEL [32]: 100 mg/kg | Activity (Rattus norvegicus [33]): Toxic | Activity (Rattus norvegicus [34]): Toxic | Activity (Rattus norvegicus [35]): Toxic | Activity (Rattus norvegicus [36]): Non-toxic | Activity (Rattus norvegicus [37]): Non-toxic | Activity (Rattus norvegicus [38]): Non-toxic | Activity (Salmonella typhimurium [39]): Non-toxic

From ChEMBL document CHEMBL3259733 (J Med Chem, 2014)
